Laboratory results from patent US20130296441A1, “Anti-Obesity Properties of Pterostilbene” (priority 2012, published 2013).
Like-named read-outs stand apart in the source and are kept apart here. Marks after values point to notes of the source that are not given here.

How the values were obtained:
[1] = in vivo; cited from earlier work
[2] = test system: male Wistar rats fed obesogenic diet high in sucrose and fat; assay: Body weight, food intake, adipose tissue and muscle weights in rats fed an obesogenic diet with pterostilbene for 6 weeks; type: in vivo, rat; settings: for decrease in total adipose tissue mass: versus control; for Adipose Tissue Weight, Epididymal / Adipose Tissue Weight, Interscapular Brown / Adipose Tissue Weight, Mesenteric / Adipose Tissue Weight, Perirenal / Adipose Tissue Weight, Subcutaneous / Adipose Tissue Weight, Total Fat Depots / Body Weight Increase / Food Intake / Final Body Weight: mean ± SEM; for Final Body Weight: n = 9, in g
Procedure: (§1) The experiment was conducted with twenty seven male Wistar rats with an initial body weight of 180±2 grams purchased from Harlan Ibérica (Barcelona, Spain), and took place in accordance with the University of the Basque Country's guide for the care and use of laboratory animals (Reference protocol approval CUEID CEBA/30/2010). The rats were individually housed in polycarbonate metabolic cages (Techniplast Gazzada, Guguggiate, Italy) and placed in an air-conditioned room (22±2° C.) with a 12 h light-dark cycle. After a 6-day adaptation period, rats were randomly divided in 3 dietary groups of nine animals each, and fed on a commercial obesogenic diet, high in sucrose (20.0%) and fat (22.5%) (Harlan Iberica, TD.06415). Pterostilbene was added to the diet. Rats in the pterostilbene groups received 15 mg/kg body weight/d (PT15 group) or 30 mg/kg body weight/d (PT30 group). All animals had free access to food and water. Food intake and body weight were daily measured.
At the end of the 6-week experimental period, animals were sacrificed, under anaesthesia (chloral hydrate), by cardiac exsanguination. White adipose tissue from different anatomical locations (perirenal, epididymal, mesenteric and subcutaneous) and liver were dissected, weighed and immediately frozen.

[3] = Serum and tissue levels of pterostilbene by GC-MS; type: in vivo, rat; settings: for concentration at 6 weeks: male, Wistar, rat, oral
Procedure: as §1
Extraction of pterostilbene in the serum was according to published procedure (Kotani et al. 2003. J. Chromatogr. B. 788:269-275), with modifications. Serum from −80° C. storage was thawed on ice. To 50 μL serum was added 15 μL of β-glucuronidase (from E. coli, Type IX-A, Sigma-Aldrich, St. Louis, Mo., USA; 250 U/15 mL sodium phosphate buffer, 0.1M, pH 6.8) and 15 μL of sulfatase (from Abalone Entrails, Type VIII, Sigma-Aldrich, St. Louis, Mo., USA; 20 U/15 mL sodium phosphate buffer, 0.1M, pH 6.8), then vortex-mixed. This mixture was incubated for 20 hr at 37° C. while shaking at 750 rpm, cooled to room temperature, then partitioned with ethyl acetate (75 μL×3). The ethyl acetate layers were combined and dried under nitrogen. The dried sample was derivatized with 40 μL of N,O-bis[trimethylsilyl]-trifluoroacetamide: dimethyl-formamide (BSTFA:DMF, 1:1; Pierce Biotechnology, Inc., Rockford, Ill.), heated at 70° C. for 40 min and used for the analysis of pterostilbene by gas chromatography-mass spectrometry (GC-MS).
Pterostilbene in liver and muscle was extracted following published procedure (Hou et al. 2011. Planta Med. 77:455-460), with minor modifications. For liver, 100 mg fresh tissues were homogenized in 1 mL saline solution (0.9% NaCl in H2O). For muscle, 100 mg lyophilized tissue was homogenized in 1 mL sodium acetate buffer, pH 5. To the homogenates was added 300 μL enzyme solution (793.67 U/mL sulfatase and 666.66 U/mL β-glucuronidase in sodium acetate buffer, pH 5), vortex-mixed, and incubated at 37° C. for 16 hr while shaking at 750 rpm. To this mixture was added 100 μL of 0.1N HCl, then partitioned with ethyl acetate (800 μL×2). The ethyl acetate layers were combined, then dried under nitrogen. The dried sample was derivatized with BSTFA:DMF under the same conditions used for the analysis of pterostilbene in serum.
For the analysis of pterostilbene in epididymis and subcutaneous tissues, 100 mg of lyophilized tissue was homogenized in 300 μL of sodium acetate buffer, then sonicated for 30 min. To the homogenate was added 300 μl enzyme solution (793.67 U/mL sulfatase and 1333.33 U/mL β-glucuronidase in sodium acetate buffer, pH5) vortex-mixed, and incubated at 37° C., with shaking (750 rpm), for 16 hours. After incubation, 500 μl ice-cold acetonitrile was added, vortex-mixed for 1 min, then centrifuged at 800 rpm (Savant SpeedVac, model number SPD121P-120) for 20 min. The clear supernatant was collected, and again treated with 500 μl ice-cold acetonitrile, vortex-mixed and then centrifuged at 800 rpm for 20 min. The supernatant was then dried under a stream of nitrogen, then derivatized with BSTFA:DMF using the same conditions as in the analysis of pterostilbene in serum.
GC-MS analysis of pterostilbene in serum and tissues was performed using a J&W DB-5 capillary column (0.25 mm internal diameter, 0.25 μm film thickness, 30 m length; Agilent Technologies, Foster City, Calif.) on a JEOL GCMate II Instrument (JEOL USA Inc., Peabody, Mass.). […]

[4] = test system: mice; settings: mice fed 28 days at doses up to 3000 mg/kg body weight/d; cited from earlier work
[5] = PT15: 15 mg/kg body weight/d in diet
[6] = PT30: 30 mg/kg body weight/d in diet

Q: With COc1cc(/C=C/c2ccc(O)cc2)cc(OC)c1 [pterostilbene] as the molecule, how does the half-life [1] read?
A: The half-life was “approximately 2 hr”.

Q: And the “decrease in total adipose tissue mass” value ([2]; PT15: 15 mg/kg BW/d)?
A: Its value is 15.1%.

Q: What about the “Adipose Tissue Weight, Epididymal” value [2, 5] of the same molecule?
A: The value was 10.5 ± 0.9 g.

Q: What about the “Adipose Tissue Weight, Interscapular Brown” value [2, 5] of the same molecule?
A: Its value is 1.01 ± 0.23 g.

Q: And the “Adipose Tissue Weight, Mesenteric” value [2, 5]?
A: The value was 5.2 ± 0.4^ab g.

Q: And the “Adipose Tissue Weight, Perirenal” value [2, 5]?
A: The value was 12.0 ± 1.1^ab g.

Q: What about the “Adipose Tissue Weight, Subcutaneous” value [2, 5] of the same molecule?
A: The value was 12.6 ± 1.2^b g.

Q: What about the “Adipose Tissue Weight, Total Fat Depots” value [2, 5] of the same molecule?
A: The value was 40.3 ± 3.0^b g.

Q: And the “Body Weight Increase” value [2, 5]?
A: Its value is 206 ± 9 g.

Q: What about the “Food Intake” value [2, 5] of the same molecule?
A: The value was 17.7 ± 0.5 g/day.

Q: And the “Final Body Weight” value [2, 5]?
A: Its value is 382 ± 5.

Q: What about the “decrease in total adipose tissue mass” value ([2]; PT30: 30 mg/kg BW/d) of the same molecule?
A: The value was 22.9%.

Q: What about the “Adipose Tissue Weight, Epididymal” value [2, 6] of the same molecule?
A: The value was 10.5 ± 1.1 g.

Q: What about the “Adipose Tissue Weight, Interscapular Brown” value [2, 6] of the same molecule?
A: The value was 0.75 ± 0.05 g.

Q: And the “Adipose Tissue Weight, Mesenteric” value [2, 6]?
A: The value was 4.8 ± 0.5^b g.

Q: What about the “Adipose Tissue Weight, Perirenal” value [2, 6] of the same molecule?
A: The value was 11.2 ± 1.0^b g.

Q: And the “Adipose Tissue Weight, Subcutaneous” value [2, 6]?
A: Its value is 12.7 ± 1.6^b g.

Q: What about the “Adipose Tissue Weight, Total Fat Depots” value [2, 6] of the same molecule?
A: The value was 36.6 ± 3.5^b g.

Q: What about the “Body Weight Increase” value [2, 6] of the same molecule?
A: The value was 200 ± 6 g.

Q: And the “Food Intake” value [2, 6]?
A: The value was 17.5 ± 0.3 g/day.

Q: What about the “Final Body Weight” value [2, 6] of the same molecule?
A: The value was 382 ± 5.

Q: What about the “Muscle level of pterostilbene” value ([3]; PT15: 15 mg/kg body weight/d in diet, 6 weeks) of the same molecule?
A: Its value is “Not Detected”.

Q: What about the concentration at 6 weeks ([3]; epididymis, PT15: 15 mg/kg body weight/d in diet, dry weight, n = 8, read-out: Epididymis level of pterostilbene) of the same molecule?
A: The concentration at 6 weeks was 10.9 ± 5.3 ng/g.

Q: What about the concentration at 6 weeks ([3]; epididymis, PT30: 30 mg/kg body weight/d in diet, dry weight, n = 8, read-out: Epididymis level of pterostilbene) of the same molecule?
A: Its concentration at 6 weeks is 30.7 ± 11 ng/g.

Q: And the concentration at 6 weeks ([3]; liver, PT15: 15 mg/kg body weight/d in diet, fresh weight, n = 8, read-out: Liver level of pterostilbene)?
A: The concentration at 6 weeks was 308 ± 117 ng/g.

Q: And the concentration at 6 weeks ([3]; liver, PT30: 30 mg/kg body weight/d in diet, fresh weight, n = 6, read-out: Liver level of pterostilbene)?
A: Its concentration at 6 weeks is 726 ± 112 ng/g.

Q: What about the concentration at 6 weeks ([3]; muscle, PT30: 30 mg/kg body weight/d in diet, dry weight, n = 8, read-out: Muscle level of pterostilbene) of the same molecule?
A: Its concentration at 6 weeks is 9.1 ± 2 ng/g.

Q: What about the concentration at 6 weeks ([3]; serum, PT15: 15 mg/kg body weight/d in diet, after glucuronidase/sulfatase hydrolysis, n = 8, read-out: Serum level of pterostilbene) of the same molecule?
A: The concentration at 6 weeks was 384 ± 54.7 ng/mL.

Q: What about the concentration at 6 weeks ([3]; serum, PT30: 30 mg/kg body weight/d in diet, after glucuronidase/sulfatase hydrolysis, n = 6, read-out: Serum level of pterostilbene) of the same molecule?
A: The concentration at 6 weeks was 789 ± 246 ng/mL.

Q: And the concentration at 6 weeks ([3]; subcutaneous tissue, PT15: 15 mg/kg body weight/d in diet, dry weight, n = 7, read-out: Subcutaneous tissue level of pterostilbene)?
A: The concentration at 6 weeks was 20.5 ± 13.7 ng/g.

Q: What about the concentration at 6 weeks ([3]; subcutaneous tissue, PT30: 30 mg/kg body weight/d in diet, dry weight, n = 7, read-out: Subcutaneous tissue level of pterostilbene) of the same molecule?
A: The concentration at 6 weeks was 35.4 ± 7.7 ng/g.

Q: And the “toxic or adverse biochemical effects compared to controls” value [4]?
A: The value was “no significant toxic or adverse biochemical effects”.
